Measurements from patent US11384078B2, “5,6-fused-bicyclic compounds and compositions for the treatment of parasitic diseases” (NOVARTIS AG, priority 2017, dated 2022).

Key:
Assay type in all cases: cell-based
[1] = system: Trypanosoma brucei brucei (Lister 427) strain; test: Assay for growth inhibition against Trypanosoma brucei brucei (Cell TiterGlo ATP luminescence); conditions: Trypanosoma brucei, T. brucei brucei (Lister 427); read-out: T. Brucei (HAT) EC50
Method: Assay for Growth Inhibition Against Trypanosoma brucei brucei
The proliferation is quantified by the addition of Cell TiterGlo® (Promega®) a luminescent cell viability assay that measures the number of viable cells in culture based on the quantification of cellular ATP amount, which is an indicator of metabolically active cells.
Trypanosoma brucei brucei (Lister 427) strain was grown in Hirumi 9 (HMI-9) media supplemented with 10% v/v fetal bovine serum (FBS) and 10% v/v serum plus. For measurement of cell proliferation inhibition, test compounds were three fold serially diluted in duplicates to 384-well white plates, resulting in 10 dilutions for each compound. A volume of 40 μL of T. b. brucei culture (10,000 parasites/mL) was added to each well, and the assay plates were incubated at 37° C. for 2 days in a CO2 incubator. Growth inhibition was monitored by measuring ATP levels, which, is used as a surrogate marker for growth. Relative luminescence units were measured using TECAN® M1000 after 30 min of adding 40 μl of Cell TiterGlo®. IC50 values were determined by analyzing the data using HELIOS software. IC50 is defined as the lowest concentration of the compound that inhibited 50% growth of the T. b. brucei wild type strain compared to untreated controls.

[2] = system: Leishmania donovani axenic amastigote; test: In vitro assay for growth inhibition of Leishmania donovani axenic amastigote (Cell TiterGlo luminescence); conditions: Leishmania donovani, L. donovani axenic amastigotes in vitro; read-out: L. donovani amastigotes EC50
Procedure, shortened: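 Axenic L. donovani amastigotes (9600/well) grown at 37 °C, 5% CO2 in supplemented RPMI 1640, pH 5.5, with compound added from DMSO. After two days, viability read by CellTiter-Glo luminescence against DMSO and control-compound wells.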

[3] = system: Trypanosoma cruzi amastigotes cultured in 3T3 fibroblast cells; test: Assay for growth inhibition of kinetoplastid parasite Trypanosoma cruzi (beta-galactosidase Tulahuen strain, CPRG readout); conditions: Trypanosoma cruzi, Fibroblast, T. cruzi amastigotes in 3T3 fibroblast cells; read-out: Buckner infectious T. cruzi EC50
Procedure, shortened: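 3T3 fibroblasts (1,000 cells/well) plated overnight, treated with compound in DMSO, then infected with 10,000 Lac-Z-expressing Tulahuen trypomastigotes. After 6 days, 0.6 mM CPRG with 0.6% NP-40 added for 2 h at room temperature; absorbance gives relative intracellular amastigote numbers. Benznidazole and nifurtimox serve as positive controls.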

Structure (SMILES)	EC50 [1] [nM]	EC50 [2] [nM]	EC50 [3] [nM]
O=C(Nc1ccc(F)c(-n2cc3cc(N4CCS(=O)(=O)CC4)cnc3n2)c1)N1CC(F)C1 [Compound 178, N-{3-[5-(1,1-dioxo-1$|^6,4-thiomorpholin-4-yl)-2H-pyrazolo[3,4-b]pyridin-2-yl]-4-fluorophenyl}-3-fluoroazetidine-1-carboxamide]	36	160	1600
CN1CCN(c2cnc3nn(-c4cc(NC(=O)N5CC(F)C5)ccc4F)cc3c2)CC1 [Compound 179, 3-fluoro-N-{4-fluoro-3-[5-(4-methylpiperazin-1-yl)-2H-pyrazolo[3,4-b]pyridin-2-yl]phenyl}azetidine-1-carboxamide]	< 23	410	43
O=C(Nc1ccc(F)c(-n2cc3cc(N4CCn5ccnc5C4)cnc3n2)c1)N1CC(F)C1 [Compound 180, 3-fluoro-N-[4-fluoro-3-(5-{5H,6H,7H,8H-imidazo[1,2-a]pyrazin-7-yl}-2H-pyrazolo[3,4-b]pyridin-2-yl)phenyl}azetidine-1-carboxamide]	38	550	3900
O=C(Nc1ccc(F)c(-n2cc3cc(N4CC(O)C4)cnc3n2)c1)N1CC(F)C1 [Compound 181, 3-fluoro-N-{4-fluoro-3-[5-(3-hydroxyazetidin-1-yl)-2H-pyrazolo[3,4-b]pyridin-2-yl]phenyl}azetidine-1-carboxamide]	< 23	25	820
O=C(Nc1ccc(F)c(-n2cc3cc(-c4ccncc4)cnc3n2)c1)N1CC(F)C1 [Compound 182, 3-fluoro-N-(4-fluoro-3-(5-(pyridin-4-yl)-2H-pyrazolo[3,4-b]pyridin-2-yl)phenyl)azetidine-1-carboxamide]	< 23	7.6	6.7
O=C(Nc1ccc(F)c(-n2cc3cc(N4CCC5(COC5)C4)cnc3n2)c1)N1CC(F)C1 [Compound 183, 3-fluoro-N-[4-fluoro-3-(5-{2-oxa-6-azaspiro[3.4]octan-6-yl}-2H-pyrazolo[3,4-b]pyridin-2-yl)phenyl}azetidine-1-carboxamide]	< 23	12	55
[2H]C([2H])([2H])N(C(=O)Nc1ccc(F)c(-n2cc3cc(C(C)C)cnc3n2)c1)C([2H])([2H])[2H] [Compound 219, 1-{4-fluoro-3-[5-(propan-2-yl)-2H-pyrazolo[3,4-b]pyridin-2-yl]phenyl}-3,3-bis(^2H3)methylurea]	17	34	15
CC(C)c1cnc2nn(-c3cc(NC(=O)N4CCC5(CC5)C4)ccc3F)cc2c1 [Compound 220, N-{4-fluoro-3-[5-(propan-2-yl)-2H-pyrazolo[3,4-b]pyridin-2-yl]phenyl}-5-azaspiro[2.4]heptane-5-carboxamide]	42	15	6
CC(C)c1cnc2nn(-c3cc(NC(=O)N4CC[C@@H](C)C4)ccc3F)cc2c1 [Compound 221, (3R)-N-{4-fluoro-3-[5-(propan-2-yl)-2H-pyrazolo[3,4-b]pyridin-2-yl]phenyl}-3-methylpyrrolidine-1-carboxamide]	9	3	1
CC(C)c1cnc2nn(-c3cc(NC(=O)N4CC5(CC5)C4)ccc3F)cc2c1 [Compound 222, N-{4-fluoro-3-[5-(propan-2-yl)-2H-pyrazolo[3,4-b]pyridin-2-yl]phenyl}-5-azaspiro[2.3]hexane-5-carboxamide]	73	80	45
CC(C)c1cnc2nn(-c3cc(NC(=O)N4C[C@H]5C[C@H]5C4)ccc3F)cc2c1 [Compound 223, (1R,5S)-N-{4-fluoro-3-[5-(propan-2-yl)-2H-pyrazolo[3,4-b]pyridin-2-yl]phenyl}-3-azabicyclo[3.1.0]hexane-3-carboxamide]	64	82	37
CCN(C)C(=O)Nc1ccc(F)c(-n2cc3cc(C(C)C)cnc3n2)c1 [Compound 224, 3-ethyl-1-{4-fluoro-3-[5-(propan-2-yl)-2H-pyrazolo[3,4-b]pyridin-2-yl]phenyl}-3-methylurea]	67	111	46
CO[C@@H]1CCN(C(=O)Nc2ccc(F)c(-n3cc4cc(C(C)C)cnc4n3)c2)C1 [Compound 225, (3R)-N-{4-fluoro-3-[5-(propan-2-yl)-2H-pyrazolo[3,4-b]pyridin-2-yl]phenyl}-3-methoxypyrrolidine-1-carboxamide]	238	37	50
CC(C)c1cnc2nn(-c3cc(NC(=O)N4CC5(CCC5)C4)ccc3F)cc2c1 [Compound 226, N-{4-fluoro-3-[5-(propan-2-yl)-2H-pyrazolo[3,4-b]pyridin-2-yl]phenyl}-2-azaspiro[3.3]heptane-2-carboxamide]	343	134	129
CC(C)c1cnc2nn(-c3cc(NC(=O)N(C)CC(F)(F)F)ccc3F)cc2c1 [Compound 227, 1-{4-fluoro-3-[5-(propan-2-yl)-2H-pyrazolo[3,4-b]pyridin-2-yl]phenyl}-3-methyl-3-(2,2,2-trifluoroethyl)urea]	59	30	11
CC(C)c1cnc2nn(-c3cc(NC(=O)N(C)C)ccc3F)cc2c1 [Compound 228, 1-{4-fluoro-3-[5-(propan-2-yl)-2H-pyrazolo[3,4-b]pyridin-2-yl]phenyl}-3,3-dimethylurea]	30	31	10
CC(C)c1cnc2nn(-c3cc(NC(=O)N4CCN5CCC4CC5)ccc3F)cc2c1 [Compound 229, N-{4-fluoro-3-[5-(propan-2-yl)-2H-pyrazolo[3,4-b]pyridin-2-yl]phenyl}-1,4-diazabicyclo[3.2.2]nonane-4-carboxamide]	12500	25000	15600
CC1(O)CN(c2cnc3nn(-c4cc(NC(=O)N5CC(F)C5)ccc4F)cc3c2)C1 [Compound 251, 3-fluoro-N-{4-fluoro-3-[5-(3-hydroxy-3-methylazetidin-1-yl)-2H-pyrazolo[3,4-b]pyridin-2-yl]phenyl}azetidine-1-carboxamide]	5	24	367
O=C(Nc1ccc(F)c(-n2cc3cc(N4CCN(CC(F)(F)F)CC4)cnc3n2)c1)N1CC(F)(F)C1 [Compound 252, 3,3-difluoro-N-(4-fluoro-3-{5-[4-(2,2,2-trifluoroethyl)piperazin-1-yl]-2H-pyrazolo[3,4-b]pyridin-2-yl}phenyl)azetidine-1-carboxamide]	5	183	22
O=C(Nc1ccc(F)c(-n2cc3cc(N4CCN(CC(F)(F)F)CC4)cnc3n2)c1)N1CC[C@@H](F)C1 [Compound 253, (3R)-3-fluoro-N-(4-fluoro-3-{5-[4-(2,2,2-trifluoroethyl)piperazin-1-yl]-2H-pyrazolo[3,4-b]pyridin-2-yl}phenyl)pyrrolidine-1-carboxamide]	5	3	4
O=C(Nc1ccc(F)c(-n2cc3cc(-n4cccn4)cnc3n2)c1)N1CC(F)C1 [Compound 319, 3-fluoro-N-{4-fluoro-3-[5-(1H-pyrazol-1-yl)-2H-pyrazolo[3,4-b]pyridin-2-yl]phenyl}azetidine-1-carboxamide]	5	1	1
O=C(Nc1ccc(F)c(-n2cc3cc(C(F)(F)F)cnc3n2)c1)N1CCC1 [Compound 320, N-{4-fluoro-3-[5-(trifluoromethyl)-2H-pyrazolo[3,4-b]pyridin-2-yl]phenyl}azetidine-1-carboxamide]	5	8	2
O=C(Nc1ccc(F)c(-n2cc3cc(C(F)(F)F)cnc3n2)c1)N1CC(F)C1 [Compound 321, 3-fluoro-N-{4-fluoro-3-[5-(trifluoromethyl)-2H-pyrazolo[3,4-b]pyridin-2-yl]phenyl}azetidine-1-carboxamide]	5	18	11
O=C(Nc1ccc(F)c(-n2cc3cc(C(F)(F)F)cnc3n2)c1)N1CC[C@@H](F)C1 [Compound 322, (3R)-3-fluoro-N-{4-fluoro-3-[5-(trifluoromethyl)-2H-pyrazolo[3,4-b]pyridin-2-yl]phenyl}pyrrolidine-1-carboxamide]	5	12	3
